Results reported in ChEMBL document CHEMBL1909046, “DrugMatrix in vitro pharmacology data”.

Experiments:
[1] = DRUGMATRIX: Tumor Necrosis Factor (TNF), Non-Selective radioligand binding (ligand: [125I] TNF-alpha); assay type: cell membranes, Membrane; details: u-937; Not Active = under 50% inhibition at 10 µM
[2] = DRUGMATRIX: Glutamate, NMDA, Phencyclidine radioligand binding (ligand: [3H] TCP); assay type: cell membranes, Rattus norvegicus, Wistar, Cerebral cortex, Membrane; details: Not Active = under 50% inhibition at 10 µM
Substance-P receptor = Substance-P receptor (Homo sapiens, UniProt P25103); assay type: cell membranes, Membrane; details: cho; note: in other assays of this panel Not Active means under 50% inhibition at 10 µM
Cytochrome P450 2D6 = Cytochrome P450 2D6 (Homo sapiens, UniProt P10635); details: bti-tn-5b1-4; note: in other assays of this panel Not Active means under 50% inhibition at 10 µM
[3] = biological target: Mitogen-activated protein kinase 14 (Homo sapiens, UniProt Q16539); design: species or system Escherichia coli;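 note: inhibition of p38alpha enzyme activity in a biochemical kinase assay, with myelin basic protein serving as substrate; in other assays of this panel Not Active means under 50% inhibition at 10 µM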
[4] = biological target: T1, Polyunsaturated fatty acid lipoxygenase ALOX15 (Oryctolagus cuniculus, UniProt P12530); experiment: biochemical; assay type: tissue-based, Reticulocytes; details: reticulocytes;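 note: inhibition of 15-lipoxygenase enzyme activity measured with linoleic acid as the substrate; in other assays of this panel Not Active means under 50% inhibition at 10 µM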
T1 sequence (P12530 whole entry): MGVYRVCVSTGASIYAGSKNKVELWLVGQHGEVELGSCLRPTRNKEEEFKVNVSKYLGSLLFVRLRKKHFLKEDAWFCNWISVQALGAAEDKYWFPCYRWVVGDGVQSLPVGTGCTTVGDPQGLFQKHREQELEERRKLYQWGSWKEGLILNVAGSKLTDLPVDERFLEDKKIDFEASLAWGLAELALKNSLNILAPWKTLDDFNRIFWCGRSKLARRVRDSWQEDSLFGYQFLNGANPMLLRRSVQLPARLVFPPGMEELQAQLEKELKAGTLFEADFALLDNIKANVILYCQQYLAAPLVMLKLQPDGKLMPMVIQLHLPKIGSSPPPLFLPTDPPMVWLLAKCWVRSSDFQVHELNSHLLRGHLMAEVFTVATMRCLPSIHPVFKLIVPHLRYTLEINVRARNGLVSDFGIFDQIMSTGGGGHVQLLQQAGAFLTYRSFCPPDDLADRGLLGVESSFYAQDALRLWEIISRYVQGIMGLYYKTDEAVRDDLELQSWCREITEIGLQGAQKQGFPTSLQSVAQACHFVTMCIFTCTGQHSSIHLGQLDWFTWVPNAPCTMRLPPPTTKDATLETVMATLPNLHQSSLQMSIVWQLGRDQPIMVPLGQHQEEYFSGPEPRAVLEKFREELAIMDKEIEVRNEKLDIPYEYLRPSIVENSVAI

[5] = biological target: 5-hydroxytryptamine receptor 1B (Rattus norvegicus, UniProt P28564); assay type: cell membranes, Wistar, Cerebral cortex, Membrane; note: in other assays of this panel Not Active means under 50% inhibition at 10 µM
Chain of 5-hydroxytryptamine receptor 1B (P28564 whole entry): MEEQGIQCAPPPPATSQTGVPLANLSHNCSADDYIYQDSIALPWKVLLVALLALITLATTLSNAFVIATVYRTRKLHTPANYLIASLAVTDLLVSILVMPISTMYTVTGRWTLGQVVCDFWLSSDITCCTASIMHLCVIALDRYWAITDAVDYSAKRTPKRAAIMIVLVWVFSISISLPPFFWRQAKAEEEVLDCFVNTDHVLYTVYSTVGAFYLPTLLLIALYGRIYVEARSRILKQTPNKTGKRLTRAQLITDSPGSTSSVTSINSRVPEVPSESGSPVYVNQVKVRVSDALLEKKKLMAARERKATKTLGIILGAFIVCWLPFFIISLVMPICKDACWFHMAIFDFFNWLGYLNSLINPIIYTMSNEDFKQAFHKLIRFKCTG

Chain of Cytochrome P450 2D6 (P10635 whole entry): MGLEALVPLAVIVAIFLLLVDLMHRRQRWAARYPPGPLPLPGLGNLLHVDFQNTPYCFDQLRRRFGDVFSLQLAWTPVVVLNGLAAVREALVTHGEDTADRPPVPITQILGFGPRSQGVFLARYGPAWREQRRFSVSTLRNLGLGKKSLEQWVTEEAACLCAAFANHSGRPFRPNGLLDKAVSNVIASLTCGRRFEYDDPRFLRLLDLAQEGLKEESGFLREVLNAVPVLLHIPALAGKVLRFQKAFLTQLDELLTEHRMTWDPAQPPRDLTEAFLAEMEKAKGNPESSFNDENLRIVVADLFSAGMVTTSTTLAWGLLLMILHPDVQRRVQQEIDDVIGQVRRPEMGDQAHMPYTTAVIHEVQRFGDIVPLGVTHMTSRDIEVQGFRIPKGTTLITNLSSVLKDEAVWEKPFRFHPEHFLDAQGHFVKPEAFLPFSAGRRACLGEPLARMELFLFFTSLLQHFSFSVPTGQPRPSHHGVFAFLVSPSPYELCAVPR
Chain of Substance-P receptor (P25103 whole entry): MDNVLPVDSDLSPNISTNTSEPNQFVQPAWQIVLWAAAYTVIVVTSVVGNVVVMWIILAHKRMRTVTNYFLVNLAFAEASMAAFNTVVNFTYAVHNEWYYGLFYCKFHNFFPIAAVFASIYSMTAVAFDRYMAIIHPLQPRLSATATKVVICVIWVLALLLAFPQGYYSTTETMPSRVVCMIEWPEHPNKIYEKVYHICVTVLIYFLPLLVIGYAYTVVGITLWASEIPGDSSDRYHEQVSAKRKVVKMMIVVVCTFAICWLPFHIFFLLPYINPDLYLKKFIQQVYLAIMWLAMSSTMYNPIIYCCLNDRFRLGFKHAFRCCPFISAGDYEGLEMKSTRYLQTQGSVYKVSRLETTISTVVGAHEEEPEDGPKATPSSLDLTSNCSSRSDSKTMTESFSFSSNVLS
Chain of Mitogen-activated protein kinase 14 (Q16539 whole entry): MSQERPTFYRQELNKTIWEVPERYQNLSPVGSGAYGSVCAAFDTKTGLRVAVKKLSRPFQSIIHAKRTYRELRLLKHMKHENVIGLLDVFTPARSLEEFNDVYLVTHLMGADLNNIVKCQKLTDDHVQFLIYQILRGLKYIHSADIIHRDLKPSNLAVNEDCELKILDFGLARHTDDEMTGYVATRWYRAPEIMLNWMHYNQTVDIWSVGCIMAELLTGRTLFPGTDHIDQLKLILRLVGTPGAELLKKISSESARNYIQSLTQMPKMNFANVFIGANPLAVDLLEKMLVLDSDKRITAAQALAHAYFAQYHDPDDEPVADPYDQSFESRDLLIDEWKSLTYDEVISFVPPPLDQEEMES

CC[C@H](C)C(=O)O[C@H]1C[C@H](O)C=C2C=C[C@H](C)[C@H](CC[C@@H](O)C[C@@H](O)CC(=O)O)[C@H]21 [PRAVASTATIN]
Not Active: IC50 [1] | Ki [1] | IC50 [2] | Ki [2] | IC50 (Substance-P receptor) | IC50 (Cytochrome P450 2D6) | Ki (Cytochrome P450 2D6) | IC50 [3] | IC50 [4] | IC50 [5]

CC(C)(Sc1cc(C(C)(C)C)c(O)c(C(C)(C)C)c1)Sc1cc(C(C)(C)C)c(O)c(C(C)(C)C)c1 [PROBUCOL]
Not Active: IC50 [1] | Ki [1] | IC50 [2] | Ki [2] | IC50 (Substance-P receptor) | IC50 (Cytochrome P450 2D6) | Ki (Cytochrome P450 2D6) | IC50 [3] | IC50 [4] | IC50 [5]

COBALT(II) ACETYLACETONATE
Not Active: IC50 [1] | Ki [1] | IC50 [2] | Ki [2] | IC50 (Substance-P receptor) | Ki (Substance-P receptor) | IC50 (Cytochrome P450 2D6) | Ki (Cytochrome P450 2D6) | IC50 [3] | Ki [3] | IC50 [4] | Ki [4] | IC50 [5] | Ki [5]

INSULIN HUMAN
Not Active: IC50 [1] | Ki [1] | IC50 [2] | Ki [2] | IC50 (Substance-P receptor) | Ki (Substance-P receptor) | IC50 (Cytochrome P450 2D6) | Ki (Cytochrome P450 2D6) | IC50 [3] | Ki [3] | IC50 [4] | Ki [4] | IC50 [5] | Ki [5]

POLYVINYL ALCOHOL
Not Active: IC50 [1] | Ki [1] | IC50 [2] | Ki [2] | IC50 (Substance-P receptor) | Ki (Substance-P receptor) | IC50 (Cytochrome P450 2D6) | Ki (Cytochrome P450 2D6) | IC50 [3] | Ki [3] | IC50 [4] | Ki [4] | IC50 [5] | Ki [5]
